Assay results as given in the supplement of paper PMC13380429.
Where a name gives a salt, the structure may show the parent alone. ± gives the standard deviation of the averaged measurements.

Tests used:
Settings in all cases: 72 h
Caco-2 [1] = assay: drug sensitivity score (DSS) for viability; higher = more toxic; extreme values may be limits of the assay
Vero E6 [2] = assay: as above
Calu-3 [3] = assay: as above
HepG2 [4] = assay: as above
U2OS [5] = assay: as above
Caco-2 [6] = assay: cell viability relative to DMSO; higher = less toxic
Vero E6 [7] = assay: as above
Calu-3 [8] = assay: as above
HepG2 [9] = assay: as above
U2OS [10] = assay: as above
Caco-2 [11] = assay: relative viability EC50 (midpoint between 100% and the lowest measured viability); higher = less toxic
Vero E6 [12] = assay: as above
Calu-3 [13] = assay: as above
HepG2 [14] = assay: as above
U2OS [15] = assay: as above

COc1cccc2c1C(=O)c1c(O)c3c(c(O)c1C2=O)C[C@@](O)(C(=O)CO)C[C@@H]3O[C@H]1C[C@H](N)[C@@H](O)[C@H](C)O1 [Epirubicin Hydrochloride]
drug sensitivity score (Caco-2 [1]): 12.3 ± 0.35
drug sensitivity score (Vero E6 [2]): 7
drug sensitivity score (Calu-3 [3]): 13.3 ± 0.99
drug sensitivity score (HepG2 [4]): 22.9 ± 0.14
drug sensitivity score (U2OS [5]): 16.6 ± 1.5
cell viability (Caco-2 [6]; 1 nM): 95.8 ± 5.9%
cell viability (Caco-2 [6]; 10 nM): 97 ± 6.3%
cell viability (Caco-2 [6]; 100 nM): 89 ± 1.4%
cell viability (Caco-2 [6]; 1000 nM): 40.8 ± 1.2%
cell viability (Caco-2 [6]; 10000 nM): 30.9 ± 1.7%
cell viability (Vero E6 [7]; 1 nM): 100 ± 2%
cell viability (Vero E6 [7]; 10 nM): 96.5 ± 2%
cell viability (Vero E6 [7]; 100 nM): 96 ± 3.5%
cell viability (Vero E6 [7]; 1000 nM): 71.1 ± 3.7%
cell viability (Vero E6 [7]; 10000 nM): 34.4 ± 8%
cell viability (Calu-3 [8]; 1 nM): 101 ± 3.3%
cell viability (Calu-3 [8]; 10 nM): 102 ± 6.4%
cell viability (Calu-3 [8]; 100 nM): 80 ± 6.6%
cell viability (Calu-3 [8]; 1000 nM): 41.2 ± 1.1%
cell viability (Calu-3 [8]; 10000 nM): 30.4 ± 0.49%
cell viability (HepG2 [9]; 1 nM): 102.8 ± 0.14%
cell viability (HepG2 [9]; 10 nM): 93.2 ± 12%
cell viability (HepG2 [9]; 100 nM): 49.7 ± 0.57%
cell viability (HepG2 [9]; 1000 nM): 12.25 ± 0.071%
cell viability (HepG2 [9]; 10000 nM): 4.25 ± 0.64%
cell viability (U2OS [10]; 1 nM): 95.5 ± 1.4%
cell viability (U2OS [10]; 10 nM): 99.7 ± 0.28%
cell viability (U2OS [10]; 100 nM): 90.2 ± 1.8%
cell viability (U2OS [10]; 1000 nM): 17.1 ± 9.9%
cell viability (U2OS [10]; 10000 nM): 3.15 ± 1.3%
relative viability EC50 (Caco-2 [11]): 0.3 µM
relative viability EC50 (Vero E6 [12]): 1.13 µM
relative viability EC50 (Calu-3 [13]): 0.224 µM
relative viability EC50 (HepG2 [14]): 0.0903 µM
relative viability EC50 (U2OS [15]): 0.349 µM

CC(=O)Nc1ccc(Cc2ccc(NC(C)=O)cc2)cc1 [FH1]
drug sensitivity score (Caco-2 [1]): 0
drug sensitivity score (Vero E6 [2]): 0
drug sensitivity score (Calu-3 [3]): 0
drug sensitivity score (HepG2 [4]): 0
drug sensitivity score (U2OS [5]): 0
cell viability (Caco-2 [6]; 1 nM): 107%
cell viability (Caco-2 [6]; 10 nM): 100%
cell viability (Caco-2 [6]; 100 nM): 104%
cell viability (Caco-2 [6]; 1000 nM): 93.7%
cell viability (Caco-2 [6]; 10000 nM): 102%
cell viability (Vero E6 [7]; 1 nM): 99.8%
cell viability (Vero E6 [7]; 10 nM): 98.1%
cell viability (Vero E6 [7]; 100 nM): 96.8%
cell viability (Vero E6 [7]; 1000 nM): 102%
cell viability (Vero E6 [7]; 10000 nM): 98.9%
cell viability (Calu-3 [8]; 1 nM): 95.7%
cell viability (Calu-3 [8]; 10 nM): 99.9%
cell viability (Calu-3 [8]; 100 nM): 84.2%
cell viability (Calu-3 [8]; 1000 nM): 92.8%
cell viability (Calu-3 [8]; 10000 nM): 104%
cell viability (HepG2 [9]; 1 nM): 99.5%
cell viability (HepG2 [9]; 10 nM): 104%
cell viability (HepG2 [9]; 100 nM): 107%
cell viability (HepG2 [9]; 1000 nM): 102%
cell viability (HepG2 [9]; 10000 nM): 96.8%
cell viability (U2OS [10]; 1 nM): 98.8%
cell viability (U2OS [10]; 10 nM): 96.6%
cell viability (U2OS [10]; 100 nM): 99.4%
cell viability (U2OS [10]; 1000 nM): 104%
cell viability (U2OS [10]; 10000 nM): 103%
relative viability EC50 (Caco-2 [11]): > 10 µM
relative viability EC50 (Vero E6 [12]): > 10 µM
relative viability EC50 (Calu-3 [13]): > 10 µM
relative viability EC50 (HepG2 [14]): > 10 µM
relative viability EC50 (U2OS [15]): > 10 µM

NC(N)=Nc1nc(CSCC/C(N)=N/S(N)(=O)=O)cs1 [Famotidine]
drug sensitivity score (Caco-2 [1]): 0
drug sensitivity score (Vero E6 [2]): 0
drug sensitivity score (Calu-3 [3]): 0
drug sensitivity score (HepG2 [4]): 0
drug sensitivity score (U2OS [5]): 0
cell viability (Caco-2 [6]; 1 nM): 101%
cell viability (Caco-2 [6]; 10 nM): 101%
cell viability (Caco-2 [6]; 100 nM): 93.9%
cell viability (Caco-2 [6]; 1000 nM): 96.8%
cell viability (Caco-2 [6]; 10000 nM): 96.8%
cell viability (Vero E6 [7]; 1 nM): 106%
cell viability (Vero E6 [7]; 10 nM): 105%
cell viability (Vero E6 [7]; 100 nM): 95.2%
cell viability (Vero E6 [7]; 1000 nM): 102%
cell viability (Vero E6 [7]; 10000 nM): 96.7%
cell viability (Calu-3 [8]; 1 nM): 84%
cell viability (Calu-3 [8]; 10 nM): 106%
cell viability (Calu-3 [8]; 100 nM): 89.8%
cell viability (Calu-3 [8]; 1000 nM): 106%
cell viability (Calu-3 [8]; 10000 nM): 90.1%
cell viability (HepG2 [9]; 1 nM): 101%
cell viability (HepG2 [9]; 10 nM): 97.4%
cell viability (HepG2 [9]; 100 nM): 87.9%
cell viability (HepG2 [9]; 1000 nM): 100%
cell viability (HepG2 [9]; 10000 nM): 85.4%
cell viability (U2OS [10]; 1 nM): 98%
cell viability (U2OS [10]; 10 nM): 104%
cell viability (U2OS [10]; 100 nM): 98.6%
cell viability (U2OS [10]; 1000 nM): 108%
cell viability (U2OS [10]; 10000 nM): 97.5%
relative viability EC50 (Caco-2 [11]): > 10 µM
relative viability EC50 (Vero E6 [12]): > 10 µM
relative viability EC50 (Calu-3 [13]): > 10 µM
relative viability EC50 (HepG2 [14]): > 10 µM
relative viability EC50 (U2OS [15]): > 10 µM

O=C(O)Cc1cccc(OCCCN(Cc2cccc(C(F)(F)F)c2Cl)CC(c2ccccc2)c2ccccc2)c1 [GW-3965]
drug sensitivity score (Caco-2 [1]): 1
drug sensitivity score (Vero E6 [2]): 0
drug sensitivity score (Calu-3 [3]): 0
drug sensitivity score (HepG2 [4]): 0
drug sensitivity score (U2OS [5]): 0
cell viability (Caco-2 [6]; 1 nM): 92.8%
cell viability (Caco-2 [6]; 10 nM): 107%
cell viability (Caco-2 [6]; 100 nM): 97.8%
cell viability (Caco-2 [6]; 1000 nM): 98.1%
cell viability (Caco-2 [6]; 10000 nM): 77.7%
cell viability (Vero E6 [7]; 1 nM): 112%
cell viability (Vero E6 [7]; 10 nM): 98.8%
cell viability (Vero E6 [7]; 100 nM): 100%
cell viability (Vero E6 [7]; 1000 nM): 101%
cell viability (Vero E6 [7]; 10000 nM): 104%
cell viability (Calu-3 [8]; 1 nM): 93.6%
cell viability (Calu-3 [8]; 10 nM): 101%
cell viability (Calu-3 [8]; 100 nM): 108%
cell viability (Calu-3 [8]; 1000 nM): 114%
cell viability (Calu-3 [8]; 10000 nM): 98.8%
cell viability (HepG2 [9]; 1 nM): 90.9%
cell viability (HepG2 [9]; 10 nM): 99.3%
cell viability (HepG2 [9]; 100 nM): 116%
cell viability (HepG2 [9]; 1000 nM): 97.5%
cell viability (HepG2 [9]; 10000 nM): 92.5%
cell viability (U2OS [10]; 1 nM): 100%
cell viability (U2OS [10]; 10 nM): 99.2%
cell viability (U2OS [10]; 100 nM): 98.2%
cell viability (U2OS [10]; 1000 nM): 101%
cell viability (U2OS [10]; 10000 nM): 95.6%
relative viability EC50 (Caco-2 [11]): > 10 µM
relative viability EC50 (Vero E6 [12]): > 10 µM
relative viability EC50 (Calu-3 [13]): > 10 µM
relative viability EC50 (HepG2 [14]): > 10 µM
relative viability EC50 (U2OS [15]): > 10 µM

Cc1cc(C(=O)CN2CCCC2)c(C)n1-c1ccc(F)cc1 [IU1]
drug sensitivity score (Caco-2 [1]): 0
drug sensitivity score (Vero E6 [2]): 0
drug sensitivity score (Calu-3 [3]): 0
drug sensitivity score (HepG2 [4]): 0
drug sensitivity score (U2OS [5]): 0
cell viability (Caco-2 [6]; 1 nM): 103%
cell viability (Caco-2 [6]; 10 nM): 105%
cell viability (Caco-2 [6]; 100 nM): 101%
cell viability (Caco-2 [6]; 1000 nM): 108%
cell viability (Caco-2 [6]; 10000 nM): 99.1%
cell viability (Vero E6 [7]; 1 nM): 99.2%
cell viability (Vero E6 [7]; 10 nM): 97.8%
cell viability (Vero E6 [7]; 100 nM): 98.4%
cell viability (Vero E6 [7]; 1000 nM): 94.6%
cell viability (Vero E6 [7]; 10000 nM): 105%
cell viability (Calu-3 [8]; 1 nM): 112%
cell viability (Calu-3 [8]; 10 nM): 99.9%
cell viability (Calu-3 [8]; 100 nM): 102%
cell viability (Calu-3 [8]; 1000 nM): 109%
cell viability (Calu-3 [8]; 10000 nM): 104%
cell viability (HepG2 [9]; 1 nM): 95.7%
cell viability (HepG2 [9]; 10 nM): 100%
cell viability (HepG2 [9]; 100 nM): 101%
cell viability (HepG2 [9]; 1000 nM): 102%
cell viability (HepG2 [9]; 10000 nM): 103%
cell viability (U2OS [10]; 1 nM): 92.3%
cell viability (U2OS [10]; 10 nM): 98.8%
cell viability (U2OS [10]; 100 nM): 95.5%
cell viability (U2OS [10]; 1000 nM): 96.2%
cell viability (U2OS [10]; 10000 nM): 109%
relative viability EC50 (Caco-2 [11]): > 10 µM
relative viability EC50 (Vero E6 [12]): > 10 µM
relative viability EC50 (Calu-3 [13]): > 10 µM
relative viability EC50 (HepG2 [14]): > 10 µM
relative viability EC50 (U2OS [15]): > 10 µM

C=C1C[C@]23C[C@@]1(O)CC[C@H]2[C@@]12C=C[C@H](O)[C@@](C)(C(=O)O1)[C@H]2[C@@H]3C(=O)O [MD-920]
drug sensitivity score (Caco-2 [1]): 0
drug sensitivity score (Vero E6 [2]): 0
drug sensitivity score (Calu-3 [3]): 0
drug sensitivity score (HepG2 [4]): 0
drug sensitivity score (U2OS [5]): 0
cell viability (Caco-2 [6]; 1 nM): 99.9%
cell viability (Caco-2 [6]; 10 nM): 85.4%
cell viability (Caco-2 [6]; 100 nM): 104%
cell viability (Caco-2 [6]; 1000 nM): 95.1%
cell viability (Caco-2 [6]; 10000 nM): 90.3%
cell viability (Vero E6 [7]; 1 nM): 100%
cell viability (Vero E6 [7]; 10 nM): 94.6%
cell viability (Vero E6 [7]; 100 nM): 86.7%
cell viability (Vero E6 [7]; 1000 nM): 102%
cell viability (Vero E6 [7]; 10000 nM): 116%
cell viability (Calu-3 [8]; 1 nM): 96.1%
cell viability (Calu-3 [8]; 10 nM): 106%
cell viability (Calu-3 [8]; 100 nM): 108%
cell viability (Calu-3 [8]; 1000 nM): 105%
cell viability (Calu-3 [8]; 10000 nM): 91.1%
cell viability (HepG2 [9]; 1 nM): 95.5%
cell viability (HepG2 [9]; 10 nM): 107%
cell viability (HepG2 [9]; 100 nM): 94.2%
cell viability (HepG2 [9]; 1000 nM): 99%
cell viability (HepG2 [9]; 10000 nM): 104%
cell viability (U2OS [10]; 1 nM): 95.1%
cell viability (U2OS [10]; 10 nM): 96.1%
cell viability (U2OS [10]; 100 nM): 104%
cell viability (U2OS [10]; 1000 nM): 101%
cell viability (U2OS [10]; 10000 nM): 97%
relative viability EC50 (Caco-2 [11]): > 10 µM
relative viability EC50 (Vero E6 [12]): > 10 µM
relative viability EC50 (Calu-3 [13]): > 10 µM
relative viability EC50 (HepG2 [14]): > 10 µM
relative viability EC50 (U2OS [15]): > 10 µM
